Measured values taken from article PMC6416077 (Journal of the American Chemical Society, 2019).

Biological target: T1, HsOMT (Hpm5) (Hypomyces subiculosus, UniProt B3FWS1)
T1 sequence (B3FWS1 1-398): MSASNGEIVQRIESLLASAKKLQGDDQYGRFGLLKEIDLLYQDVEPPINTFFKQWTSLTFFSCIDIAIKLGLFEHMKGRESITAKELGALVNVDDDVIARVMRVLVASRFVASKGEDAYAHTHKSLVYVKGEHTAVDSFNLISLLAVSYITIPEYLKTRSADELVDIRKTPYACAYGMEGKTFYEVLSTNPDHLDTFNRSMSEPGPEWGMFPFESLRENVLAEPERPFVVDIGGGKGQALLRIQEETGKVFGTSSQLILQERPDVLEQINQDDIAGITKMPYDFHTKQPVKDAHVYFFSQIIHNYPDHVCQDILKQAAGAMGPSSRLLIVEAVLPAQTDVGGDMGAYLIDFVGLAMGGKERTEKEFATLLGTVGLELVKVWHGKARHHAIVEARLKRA
Experiment: biocatalytic O-methylation in S. cerevisiae expressing HsOMT, LC-MS
Type: cell-based
Settings: native substrate; OH-5 (para) methylation to 5-O-methyl-DHZ

C[C@H]1C/C=C/[C@@H](O)CCC/C=C/c2cc(O)cc(O)c2C(=O)O1 [compound 3, DHZ]
biocatalytic O-methylation in S. cerevisiae expressing HsOMT, LC-MS: methylates the C-5 phenolic hydroxyl of the RAL14
